According to patent publication US12048714B2, “Products and methods for organ protection with noble nanoparticles” (UCHICAGO ARGONNE, LLC, priority 2020, dated 2024):
“Also recorded” adds a separate entry of the source.

Assays:
[1] = Ex situ reduction of gold precursors by NADH to Au NPs, monitored by UV-vis spectra; conditions: for formation of Au NPs / reduction to Au0 when mixed with NADH: gold precursor mixed with NADH, ex situ
Description: Gold (III) chloride (AuCl3) and cofactors, NADH, NADPH and ATP, were purchased from Sigma/Aldrich (St. Louis, MO). Paraformaldehyde/glutaraldehyde fixative solution was purchased from Electron Microscopy Sciences (Hatfield, PA). Gold NPS were formed through reduction of the AuCl3 by cofactors. Briefly, 100 μM NADH solution in PBS, pH 7.4, was placed in a cuvette and mixed with aliquots of AuCl3 in the same buffer to achieve 4:1, 2:1, and equimolar NADH/precursor ratios, at room temperature under constant stirring. Oxidation of NADH and formation of Au NPs were recorded at 340 nm and 520 nm, respectively, by UV-vis spectra using CARY-50 spectrophotometer.
AuCl3 was chosen as a precursor due to higher electron sinking capacity of Au (III) and higher stability as compared to Au(I) that can transform in vivo into Au(III) (Thakor et al., Nano Lett, 2011, 11: 4029-4036).

[2] = tested on: living acute brain sections; assay: In-situ gold nanoparticle biosynthesis in hypoxic living acute brain sections (staining, SAXS/WAXS, TEM); assay type: cell-based, mice C57BL/6J
Description: All animal procedures and the brain slice preparation procedures were performed in accordance with the Institutional Animal Care and Use Committee at the University of Chicago. Experimental mice C57BL/6J (male, 17 days old, n=2) were anesthetized by intraperitoneal injection of ketamine-xylazine, decapitated, and had their brains quickly removed. The brains were placed to the ice-cold “cut” artificial cerebrospinal fluid (ACSF) solution (containing the following, in mM: 3 KCl, 26 NaHCO3, 1 NaH2PO4, 0.5 CaCl2), 3.5 MgSO4, 25 dextrose, 123 sucrose) for quick, less than 5 min, slicing on vibratome at a thickness of 450 μm. The sections then were placed into an oxygenated incubation ACSF solution (containing the following, in mM: 123 NaCl, 3 KCl, 26 NaHCO3, 1 NaH2PO4, 2 CaCl2), 6 MgSO4, 25 dextrose) for 40 min, maintained at 32-36° C. (Sadovsky et al., J Neurosci, 2013, 33:14048-676). Tissue was left to rest at room temperature for 30 min before hypoxic induction. Hypoxia was induced in brain slices (i.e., living acute brain sections) in an oxygen-deprived chamber for 5 min, while their opposite hemisphere counterparts were used as normally oxygenated controls.
Three aliquots of aqueous AuCl3 were added to oxygen-deprived and oxygenated (control) brain slices to reach 100 μM-10 mM final concentrations of the precursor, incubated for 5 min, thoroughly rinsed (to ensure removal of precursor excess), and fixed using 2% glutaraldehyde+2% paraformaldehyde in 0.1M phosphate buffer, pH 7.4, and then stored in the same fixing solution at +5° C. before imaging and analyses.
Before the beam experiment, brain slices were removed from the ACSF solution, and mounted by sealing them between two thin glass cover slides (Fisherfinest). In situ small-angle X-ray scattering (SAXS) and wide angle X-ray scattering (WAXS) (SAXS/WAXS) measurements were carried out at beamline 12-ID-B of the Advanced Photon Source (APS), Argonne National Laboratory. In situ SAXS data were analyzed by custom-built software that is run on Matlab after standard data correction including background correction.
To isolate Au NPs, fixed brain slices were freeze-dried and mechanically grinded down. Then the NPs were extracted by DI water followed by separation of the biological debris via centrifugation (2000 rpm for 10 min). The NPs-containing supernatant were dropped onto an Ultrathin Carbon Cu transmission electron microscopy (TEM) grid with the Formvar pre-removed in toluene. Samples were allowed to set for about 1 hour and then rinsed by DI water. TEM analysis of the NPs was performed with a JEM-2100F field emission electron microscope (JEOL LTD, Tokyo, Japan) operated at 200 kV.
Coronal 450 μm thick sections of the mouse brain were isolated and prepared by a technique that allows maintaining the integrity of the isolated brain functions for sufficient experimental time-lapse, as depicted in FIGS. 4A-D. (See Sadovsky et al., J Neurosci, 2013, 33: 14048-U14676). The prepared living brain slices were incubated in a chamber with oxygenated ACSF solution (containing the following, in mM: 123 NaCl, 3 KCl, 26 NaHCO3, 1 NaH2PO4, 2 CaCl2), 6 MgSO4, 25 dextrose) for 40 min, maintained at 32-36° C. (Sadovsky et al., J Neurosci, 2013, 33: 14048-14676). Tissue was left to rest at room temperature for 30 min before hypoxic induction. Hypoxia was induced in brain slices in an oxygen-deprived chamber for 5 min, while their opposite hemisphere counterparts were used as normally oxygenated controls. […]

## [Cl][Au] [AuCl, gold monochloride]
[1]
  formation of Au NPs / reduction to Au0 when mixed with NADH: reduced by NADH to Au^0

## CC(=O)OC[C@H]1O[C@@H]([S-])[C@H](OC(C)=O)[C@@H](OC(C)=O)[C@@H]1OC(C)=O.CCP(CC)CC.[Au+] [auranofin, reference compound]
[1]
  formation of Au NPs / reduction to Au0 when mixed with NADH: yielded no Au NPs

## O=C([O-])CC([S-])C(=O)[O-].[Au+].[Na+].[Na+] (stereo not drawn) [myochrysine, reference compound]
[1]
  formation of Au NPs / reduction to Au0 when mixed with NADH: yielded no Au NPs

## OC[C@H]1O[C@H]([S-])[C@H](O)[C@@H](O)[C@@H]1O.[Au+] [solganal, reference compound]
[1]
  formation of Au NPs / reduction to Au0 when mixed with NADH: yielded no Au NPs

## Gold (III) chloride [AuCl3]
[2]; hypoxic slices, 100 μM precursor, 5 min incubation
  staining indicative of Au NPs in brain slices: revealed staining localized mainly in the outer regions of the brain section; also recorded: pink staining mainly in the outer regions of the brain section
[2]; hypoxic slices, 10 mM precursor
  formation of Au NPs / staining in brain slices: significant dark staining
[2]; hypoxic slices, 10 mM precursor, listed as Au(III) precursor
  formation of Au NPs / staining in brain slices: formation of Au NPs took place only in hypoxic brain slices
[2]; oxygenated (control) brain slices exposed to precursor
  formation of Au NPs / staining in brain slices: preserves its natural color
[2]; oxygenated (control) brain slices exposed to precursor, listed as Au(III) precursor
  formation of Au NPs / staining in brain slices: No Au NPs were detected
[1]; AuCl3/NADH molar ratio 1:4
  time of reaction after which pink color was detected by the naked eye: 20 min
  time to appearance of new peak at 520 nm characteristic for Au NPs: ~7 min
[1]; AuCl3/NADH molar ratio 1:4, NADH aqueous solution, UV-vis
  oxidation of NADH (peak at 340 nm): immediate drop of the intensity of peak at 340 nm
